This note sets out measurements from paper PMC3985843 (Journal of the American Chemical Society, 2014).

pIC50: −log10 of the molar value.

Format in all cases: cell-based
For experiment [1], the system named is P. falciparum D6 (CQS) strain. Put plainly: in vitro antimalarial activity, chloroquine-sensitive D6 strain. The settings on record: Plasmodium falciparum, D6, read-out: IC50 against D6.
Experiment [2] deals with P. falciparum Dd2 (CQR) strain. Description: in vitro antimalarial activity, chloroquine-resistant Dd2 strain. The settings on record: Plasmodium falciparum, DD2, read-out: IC50 against Dd2.
For experiment [3], the system named is P. falciparum 7G8 (CQR) strain. Description: in vitro antimalarial activity, chloroquine-resistant 7G8 strain. Particulars: Plasmodium falciparum, 7G8, read-out: IC50 against 7G8.

Broadly, the pIC50 is the negative decadic logarithm of the IC50, by convention in mol/L.

Consider `CCN(CC)CCCC(C)Nc1ccnc2cc(Cl)ccc12` (stereo not drawn) [chloroquine], for which the figures for the pIC50 in experiment [1], in experiment [2] and in experiment [3] were 7.84, 6.96 and 6.88, respectively.

On to `CO[C@@H]1CC(c2ccc[nH]2)=N[C@]12O[C@@H](C)C[C@@H]1CCCCCCCc3ccc([nH]3)[C@H]12` [compound 5, marineosin A], for which the figures for the negative-log IC50 (pIC50) in experiment [1], in experiment [2] and in experiment [3] were 6.86, 6.90 and 6.70, respectively.
